# According to patent US20250276999A1, “PEPTIDES FOR PROMOTING HAIR FOLLICLE NEOGENESIS, AND PREVENTION/MITIGATION OF UNTOWARD EFFECTS OF RADIATION TREATMENT” (Trustees of Tufts College, priority 2022, published 2025):
# Entries after “also recorded” stand apart in the source; their conditions may differ.
# What was measured:
# X-ray irradiated mice = assay: Radiation dermatitis murine model (thoracic X-ray irradiation); assay type: in vivo, C57BL/6 mice
# Protocol: Animals were irradiated in the RS2000 small animal irradiator. The RS2000 provides a cone-shaped radiation field with irradiation at 12.39-40.50 cm from the X-ray source. For dose measurements, irradiation was performed with the following settings: 160 kVp, 25 mA, 90 s irradiation time and 0.3 mm Cu beam filtration. The approximate HVL provided by the manufacturer was 0.62 mm Cu. […] A custom lead shield was placed on the floor of the irradiator, with the mouse thoracic region ˜43.75 cm from the X-ray source. Dose measurements were conducted twice to account for set-up error and reproducibility. […] The dose rate was reported for each aperture position 1-4 as an absorbed dose rate to water (ADRW, Gy/min) and the two repeated measurements were averaged.
# Mice (12-14 weeks of age) were anesthetized using inhaled anesthesia (isoflurane), and the fur was clipped on the dorsal side of the thoracic region. […] Animals were then anesthetized with injected anesthesia (150 mg/kg ketamine/18 mg/kg xylazine) and placed in Lucite jigs for exposure to 16.5 Gy thoracic irradiation in the RS2000 X-ray irradiator as previously described [19].
# Animals were monitored daily for 85 days post-irradiation for both radiation dermatitis and combined injury models. Radiation dermatitis was separately scored for hair loss, erythema, scale, and ulceration. Scoring for erythema, scale and ulceration were previously described: 0=none; 1=minimal; 2=mild; 3=moderate; 4=marked [19]. Because all animals underwent fur clipping prior to irradiation and wounding, scoring for hair loss was determined as failure to regrow hair in the irradiated areas: 0=none; 1=minimal; 2=mild; 3=moderate; 4=marked. Animals were photographed for the measurement of wounds and for dermatitis scoring. […] Weight was measured as an indication of overall health.
# [1] = system: X-ray irradiated and wounded mice; assay: Combined injury murine model (thoracic X-ray irradiation plus wound); assay type: in vivo, C57BL/6 mice
# Excerpt: The C57BL/6 strain of mice has been utilized extensively for the study of radiation-induced skin injuries. We determined that 16 Gy is the minimal dosage for the induction of radiation burns in C57BL/6 mice that are not repaired within 45 days. Sham irradiated mice without wounds were used as controls for radiation dermatitis, and treated identically as irradiated mice. Wounded mice, without radiation, were used as controls for combined injury.
# Animals were irradiated in the RS2000 small animal irradiator. The RS2000 provides a cone-shaped radiation field with irradiation at 12.39-40.50 cm from the X-ray source. For dose measurements, irradiation was performed with the following settings: 160 kVp, 25 mA, 90 s irradiation time and 0.3 mm Cu beam filtration. The approximate HVL provided by the manufacturer was 0.62 mm Cu. The University of Wisconsin Medical Radiation Research Center (UW MRRC) provided eight acrylic mouse phantoms with three (1×1×1 mm) Harshaw thermoluminenscence dosimeter (TLD)-100 microcubes (ThermoElectron Corp., Oakwood Village, OH) embedded in each phantom. The cylindrical phantom had dimensions of 27 mm in diameter (D)×65 mm in length (L) and was stabilized by a cylindrical insert 15 mm (D)×27 mm (L) with a 3 mm thick stand. A custom lead shield was placed on the floor of the irradiator, with the mouse thoracic region ˜43.75 cm from the X-ray source. Dose measurements were conducted twice to account for set-up error and reproducibility. TLDs were processed at UW MRRC using a national standard with an expanded uncertainty (k=2) of 5%. The dose rate was reported for each aperture position 1-4 as an absorbed dose rate to water (ADRW, Gy/min) and the two repeated measurements were averaged.
# Mice (12-14 weeks of age) were anesthetized using inhaled anesthesia (isoflurane), and the fur was clipped on the dorsal side of the thoracic region. Two days after fur clipping, mice to be used for combined injury were given acetaminophen (150 mg/kg in 0.5 ml sterile saline) by gavage. Animals were then anesthetized with injected anesthesia (150 mg/kg ketamine/18 mg/kg xylazine) and placed in Lucite jigs for exposure to 16.5 Gy thoracic irradiation in the RS2000 X-ray irradiator as previously described. For combined injury, immediately following thoracic irradiation and while still under anesthesia, the area of the skin was scrubbed with betadine or chlorhexidine, followed by cleaning with an alcohol pad. A 9/16 inch diameter punch biopsy tool was used to create a 1 cm wound in the central dorsal thoracic region, roughly in the center of the field of radiation exposure. The panniculus carnosus muscle and overlying skin will be removed. The wound will be left open to air. The size of the wound approximates 15% of the total body skin surface.
# TSN6 peptide (5 μg/day in 50 μl sterile saline) or hepatocyte growth factor (HGF; 3.3 μg/day in 50 μl sterile saline) or vehicle (sterile saline, 50 μl) were injected subcutaneously on days 2, 7 and 10 post-irradiation. Injections were made caudal, adjacent to the irradiated or irradiated/wounded area.
# Animals were monitored daily for 85 days post-irradiation for both radiation dermatitis and combined injury models. Radiation dermatitis was separately scored for hair loss, erythema, scale, and ulceration. Scoring for erythema, scale and ulceration were previously described: 0=none; 1=minimal; 2=mild; 3=moderate; 4=marked. Because all animals underwent fur clipping prior to irradiation and wounding, scoring for hair loss was determined as failure to regrow hair in the irradiated areas: 0=none; 1=minimal; 2=mild; 3=moderate; 4=marked. Animals were photographed for the measurement of wounds and for dermatitis scoring. […] Weight was measured as an indication of overall health.
# [2] = 16.5 Gy, s.c. days 2, 7, 10 post-irradiation, TSN6 5 μg/day, HGF 3.3 μg/day, vs vehicle
# [3] = skin 83 days post-irradiation, radiation alone
# [4] = 16.5 Gy plus wound, s.c. days 2, 7, 10, TSN6 5 μg/day, HGF 3.3 μg/day
sequence,measurement,setting,value
"HSPDIQLQKGLTFEPIQIK [TSN6, 19 amino acid peptide derived from multimerin-1, Coiled coil domain]",combined scores of radiation skin effects,"X-ray irradiated mice; 16.5 Gy, TSN6 5 μg/day s.c. days 2, 7, 10 (FIG. 5E)",marked reduction
same,erythema score,X-ray irradiated mice; [2],mitigated
same,hair loss score,X-ray irradiated mice; [2],mitigated
same,radiation dermatitis (overall measures),X-ray irradiated mice; [2],mitigated; also recorded: Mitigation of radiation dermatitis
same,scale score,X-ray irradiated mice; [2],mitigated
same,adipose layer in H&E histological sections,X-ray irradiated mice; [3],preservation of the adipose layer
same,epidermal thickening in H&E histological sections,X-ray irradiated mice; [3],reduction of the epidermal thickening
same,hair follicles within the irradiated area (histology),X-ray irradiated mice; [3],restoration of hair follicles
same,time to wound closure in the presence of radiation,"[1]; 16.5 Gy plus 9/16 inch wound, TSN6 5 μg/day s.c. days 2, 7, 10, irradiated vehicle ~30 days, no radiation ~14 days",about 16 days post-irradiation
same,combined injury (overall),"[1]; 16.5 Gy plus wound, TSN6 5 μg/day s.c. days 2, 7, 10 (FIG. 7)",Mitigation of combined injury
same,"characteristics of radiation dermatitis (hair loss, scale, erythema, ulceration) including combined score",[1]; [4],markedly reduced
same,rate of wound closure / wound repair,[1]; [4],increased the rate of wound closure
same,radiation dermatitis in images of mice,"[1]; 57, 71 and 75/79 days post-irradiation, vs vehicle (FIG. 13)",vast improvement; also recorded: improves radiation dermatitis
same,wound closure,[1]; 79 days post-irradiation (FIG. 13C),full wound closure
same,hair regrowth,"[1]; 79 days post-irradiation, vehicle: no hair regrowth (FIG. 13)",hair regrowth; also recorded: regrows pigmented hair
